These results are taken from patent publication US6451325B1, “Adjuvant formulation comprising a submicron oil droplet emulsion” (Chiron Corporation, priority 1989, dated 2002).

The test system of the test is influenza HA (Parke-Davis FLUOGEN). Also noted: species or system Goats. The settings on record: in vivo.

On to `CCCCCCCCCCCCCCCC(=O)OC[C@H](COP(=O)(O)OCCNC(=O)[C@H](C)NC(=O)CC[C@@H](NC(=O)[C@H](C)NC(=O)[C@@H](C)O[C@H]1[C@H](O)[C@@H](CO)OC(O)[C@@H]1NC(C)=O)C(N)=O)OC(=O)CCCCCCCCCCCCCCC` (stereo partly drawn) [MTP-PE in PBS, N-acetylmuramyl-L-alanyl-D-isoglutaminyl-L-alanine-2-[1,2-dipalmitoyl-sn-glycero-3-(hydroxyphosphoryloxy)]ethylamide], for which the “stimulation of antibody titer after one immunization” value is listed as “no stimulation of antibody titer”.
